The source made the active and inactive calls. The rule behind the calls is not given here.

Series [1] concerns the target Voltage-gated inwardly rectifying potassium channel KCNH2 (Homo sapiens, UniProt Q12809). As to the kind of experiment: Inhibition of human ERG by fluorescence polarization assay.
Series [2] deals with Plasmodium berghei. Put plainly: […] activity against GFP-fused Plasmodium berghei liver stage parasites infected in human HepG2-A16-CD81-EGFP cells after 48 hrs by luciferase reporter gene assay. Format: functional.
In series [3] the test system is Plasmodium berghei. As to the kind of experiment: Antiplasmodial activity against Plasmodium berghei infected in NMRI mouse assessed as parasite-free mouse at 30 mg/kg, po administered at 4, 24, 48, 72 hrs post infection measured on day 30 by Peter's test. The series is classed as functional, organism-based.
Series [4] deals with Plasmodium berghei. As to the kind of experiment: Antiplasmodial activity against Plasmodium berghei infected in NMRI mouse assessed as reduction in parasitemia at 30 mg/kg, po administered at 4, 24, 48, 72 hrs post infection measured on day 4 by Peter's test relative to control. The series is classed as functional. Further details: scale not given: the % may be the effect or the level left.

A short description of series [5]: Drug degradation in Tween 20/ethanol/phosphate buffer at 1 mg/ml at pH 7.5 after 24 hrs by HPLC analysis.
Series [6] is described as follows: Chemical stability of compound in tween 20/ethanol/phosphate buffer at 1 mg/ml at pH 7.5 assessed as compound remaining after 6 hrs by HPLC analysis. Format: physicochemical. The settings on record: read-out: Stability.
Series [7] has as its system Plasmodium falciparum. Put plainly: Antiplasmodial activity against multidrug-resistant asexual blood stages of Plasmodium falciparum Dd2 after 72 hrs by HRP2-based ELISA. Format: functional. Conditions: Dd2, 72 h.
The test system of series [8] is Plasmodium falciparum. As to the kind of experiment: Gametocytocidal activity against transgenic GFP-fused Plasmodium falciparum NF54 early stage gametocytes after 72 hrs by Mitotracker Red CMH2XRos staining based confocal microscopic method. The series is classed as functional. Conditions: NF54, 72 h.
Series [9] has as its system Mus musculus. Put plainly: Toxicity in NMRI mouse infected with Plasmodium berghei assessed as overt toxicity at 50 mg/kg, ip administered at 4, 24, 48, 72 hrs post infection. Format: organism-based. The settings on record: in vivo.
For series [10], the system named is Plasmodium berghei. As to the kind of experiment: Antiplasmodial activity against Plasmodium berghei infected in NMRI mouse assessed as mean survival time at 30 mg/kg, po administered at 4, 24, 48, 72 hrs post infection by Peter's test (reference value: 6 to 7 day). The series is classed as functional.
A short description of series [11]: Solubility of compound in phosphate buffer at pH 7.5 after 1 hr by HPLC analysis. The settings on record: pH 7.5, 1 h. Format: physicochemical.
The test system of series [12] is Plasmodium falciparum. As to the kind of experiment: Gametocytocidal activity against transgenic GFP-fused Plasmodium falciparum NF54 […] stage gametocytes after 72 hrs by Mitotracker Red CMH2XRos staining based confocal microscopic method. The series is classed as functional. The settings on record: NF54, 72 h.
Series [13] has as its system Plasmodium falciparum. Put plainly: Effect on male gamete formation in transgenic GFP-fused Plasmodium falciparum NF54 mature stage-5 gametocytes at 1 uM after 72 hrs under reduced oxygen tension by Mitotracker Red CMH2XRos staining based confocal microscopic method. Format: functional.
In series [14] the test system is Plasmodium falciparum. Put plainly: Effect on female gamete formation in transgenic GFP-fused Plasmodium falciparum NF54 mature stage-5 gametocytes at 1 uM after 72 hrs under reduced oxygen tension by Mitotracker Red CMH2XRos staining based confocal microscopic method. Format: functional.
The nature of series [15]: Solubility of compound in phosphate buffer at pH 2.5 after 1 hr by HPLC analysis. Format: physicochemical. The settings on record: pH 2.5, 1 h.
Series [16] concerns Plasmodium berghei. Put plainly: Antiplasmodial activity against Plasmodium berghei infected in NMRI mouse assessed as parasite free mouse at 3 mg/kg, po administered at 4, 24, 48, 72 hrs post infection measured on day 4 by Peter's test. The series is classed as functional, organism-based.
The test system of series [17] is HepG2. As to the kind of experiment: Cytotoxicity against human HepG2 cells by CellTiterGlo assay. The series is classed as cell-based.
The subject of series [18] is Plasmodium berghei. As to the kind of experiment: Antiplasmodial activity against Plasmodium berghei infected in NMRI mouse assessed as reduction in parasitemia at 50 mg/kg, po administered at 4, 24, 48, 72 hrs post infection measured on day 4 post infection by Peter's test relative to control. Format: functional. The arrangement: scale not given: the % may be the effect or the level left.

The test system of series [19] is Plasmodium berghei. Put plainly: Antiplasmodial activity against Plasmodium berghei infected in NMRI mouse assessed as mean survival time at 50 mg/kg, po administered at 4, 24, 48, 72 hrs post infection by Peter's test (reference value: 6 to 7 day). The series is classed as functional.
In series [20] the test system is Plasmodium berghei. As to the kind of experiment: Antiplasmodial activity against Plasmodium berghei infected in NMRI mouse assessed as mean survival time at 10 mg/kg, po administered at 4, 24, 48, 72 hrs post infection measured on day 4 by Peter's test (reference value: 6 to 7 day). The series is classed as functional.
Series [21] concerns Plasmodium falciparum. As to the kind of experiment: Antiplasmodial activity against chloroquine-sensitive asexual blood stages of Plasmodium falciparum 3D7 after 72 hrs by HRP2-based ELISA. Format: functional. Conditions: 3D7, 72 h.
Series [22] concerns Plasmodium berghei. As to the kind of experiment: Antiplasmodial activity against Plasmodium berghei infected in NMRI mouse assessed as mean survival time at 3 mg/kg, po administered at 4, 24, 48, 72 hrs post infection measured on day 4 by Peter's test (reference value: 6 to 7 day). The series is classed as functional.
Series [23] relates to Plasmodium berghei. Put plainly: Antiplasmodial activity against Plasmodium berghei infected in NMRI mouse assessed as reduction in parasitemia at 3 mg/kg, po administered at 4, 24, 48, 72 hrs post infection measured on day 4 by Peter's test relative to control. Format: functional. The arrangement: scale not given: the % may be the effect or the level left.
Series [24] concerns Plasmodium berghei. Put plainly: Antiplasmodial activity against Plasmodium berghei infected in NMRI mouse assessed as reduction in parasitemia at 10 mg/kg, po administered at 4, 24, 48, 72 hrs post infection measured on day 4 by Peter's test relative to control. Format: functional. The arrangement: scale not given: the % may be the effect or the level left.
Series [25] concerns Plasmodium berghei. Put plainly: Antiplasmodial activity against Plasmodium berghei infected in NMRI mouse assessed as parasite free mouse at 10 mg/kg, po administered at 4, 24, 48, 72 hrs post infection measured on day 4 by Peter's test. The series is classed as functional, organism-based.
Series [26] relates to Plasmodium berghei. Put plainly: Antiplasmodial activity against Plasmodium berghei infected in NMRI mouse assessed as mean survival time at 50 mg/kg, ip administered at 4, 24, 48, 72 hrs post infection by Peter's test (reference value: 6 to 7 day). Format: functional.
A short description of series [27]: Selectivity index, ratio of IC50 for human HepG2 cells to IC50 for chloroquine-sensitive asexual blood stages of Plasmodium falciparum 3D7. The series is classed as toxicity. Conditions: read-out: Ratio IC50.
For series [28], the system named is Plasmodium berghei. Put plainly: Antiplasmodial activity against Plasmodium berghei infected in NMRI mouse assessed as reduction in parasitemia at 50 mg/kg, ip administered at 4, 24, 48, 72 hrs post infection measured on day 4 post infection by Peter's test relative to control. The series is classed as functional. Further details: scale not given: the % may be the effect or the level left.

Voltage-gated inwardly rectifying potassium channel KCNH2, sequence (Q12809 whole entry, the tested form may be a part): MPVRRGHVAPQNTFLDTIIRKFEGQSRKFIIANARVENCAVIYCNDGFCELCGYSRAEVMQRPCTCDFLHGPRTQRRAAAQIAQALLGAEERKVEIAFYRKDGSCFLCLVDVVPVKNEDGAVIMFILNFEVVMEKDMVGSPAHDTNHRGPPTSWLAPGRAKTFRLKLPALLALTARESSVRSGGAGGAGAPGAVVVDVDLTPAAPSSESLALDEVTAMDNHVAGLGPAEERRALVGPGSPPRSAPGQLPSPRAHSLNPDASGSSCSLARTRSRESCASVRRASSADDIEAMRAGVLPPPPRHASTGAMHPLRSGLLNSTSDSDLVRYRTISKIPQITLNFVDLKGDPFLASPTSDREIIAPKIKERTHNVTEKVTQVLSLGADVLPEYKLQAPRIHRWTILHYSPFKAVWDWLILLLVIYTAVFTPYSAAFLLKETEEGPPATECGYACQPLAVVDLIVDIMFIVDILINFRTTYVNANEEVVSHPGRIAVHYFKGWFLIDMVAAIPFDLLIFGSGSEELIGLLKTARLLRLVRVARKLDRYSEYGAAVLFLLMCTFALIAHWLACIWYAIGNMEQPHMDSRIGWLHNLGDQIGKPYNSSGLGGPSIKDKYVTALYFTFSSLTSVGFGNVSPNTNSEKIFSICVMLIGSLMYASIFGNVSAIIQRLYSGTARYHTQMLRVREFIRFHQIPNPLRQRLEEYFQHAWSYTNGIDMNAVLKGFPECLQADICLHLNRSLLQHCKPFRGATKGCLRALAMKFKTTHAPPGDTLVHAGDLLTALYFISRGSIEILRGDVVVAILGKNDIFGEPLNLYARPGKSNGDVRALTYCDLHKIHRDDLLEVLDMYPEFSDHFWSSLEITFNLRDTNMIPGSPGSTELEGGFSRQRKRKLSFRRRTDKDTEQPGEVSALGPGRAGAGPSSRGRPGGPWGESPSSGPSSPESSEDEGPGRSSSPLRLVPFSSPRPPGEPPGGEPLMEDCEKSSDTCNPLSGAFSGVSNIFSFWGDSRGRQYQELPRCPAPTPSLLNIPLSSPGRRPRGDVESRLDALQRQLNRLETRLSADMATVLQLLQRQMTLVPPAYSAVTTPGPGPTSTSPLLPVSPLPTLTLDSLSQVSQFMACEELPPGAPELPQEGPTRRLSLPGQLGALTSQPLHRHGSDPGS

In turn, `CCCCN(CCCC)CC(O)c1cc(Cl)cc2c1-c1ccc(Cl)cc1/C2=C/c1ccc(Cl)cc1` (centres undefined) [LUMEFANTRINE] gave an IC50 in series [1] of 377 nM.

On to `N/C(CC(O)c1cc2c(F)cc(F)cc2c2cc(C(F)(F)F)ccc12)=N\N=C\c1ccc(F)cc1` (centres undefined), for which the concentration for half-maximal inhibition (IC50) in series [2] came to 6900 nM; in series [7], 2.9 nM; in [8], 200 nM; in [12], 66 nM; in series [17], 27700 nM; in series [21], 2.3 nM. In addition, the outcome in series [3], in series [13], in series [14] and in series [16] was inactive. Further, the Activity in [4] was 99.4%; in series [9] it was “Non-Toxic”; in [18], 99.9%; in [23] it was 78%; in series [24] it was 99.5%. This compound yielded a Drug degradation in series [5] of 31%. Moreover, in series [6], the remaining at 6 h, 1 mg/ml was greater than 95%. Further, the MST came out at 25.7 days in series [10], 22 days in series [19], 24.7 days in series [20] and 7 days in [22]. The solubility entry in series [11] and in [15] was “Insoluble” in each case.

In the case of `CCN(CC)Cc1cc(/C=N/N=C(\N)CC(O)c2cc3c(F)cc(F)cc3c3cc(C(F)(F)F)ccc23)ccc1O` (centres undefined), the IC50 turned out to be 5200 nM in series [2]; 6.1 nM in series [7]; 218 nM in [8]; 110 nM in series [12]; 13400 nM in [17]; 390 nM in series [1]. Moreover, inhibition in series [21] was half-maximal at 3.9 nM (IC50). Besides, the result in [3], in [25], in series [13], in series [14] and in [16] was inactive. In addition, the Activity in series [4] is 99.9%; in series [9], “Non-Toxic”; in series [18], 99.9%; in series [28], 99.8%; in [23] it was less than 40%; in [24], 99.4%. In addition, the MST in [10] worked out at 28.3 days; in [19], 29.7 days; in series [26], 30 days; in [20], 10 days. Moreover, the selectivity ratio in [27] stood at 3440.

For the compound `N/C(CC(O)c1cc2c(Cl)cc(Cl)cc2c2cc(C(F)(F)F)ccc12)=N\N=C\c1ccc(F)cc1` (centres undefined), the half-maximal inhibitory concentration (IC50) in series [2] worked out at 13000 nM; in [7], 2.5 nM; in [8], 31 nM; in series [12] it was 36 nM; in series [17] it was 43800 nM; in series [21] it was 1.8 nM. The outcome in series [3], in series [25], in series [13], in series [14] and in series [16] was inactive. Moreover, the Activity in series [4] is 99.4%; in series [9], “Non-Toxic”; in series [18] it was 99.9%; in series [28], 99.9%; in series [23] it was less than 40%; in series [24], 80%. Moreover, the MST in series [10] is 13.7 days; in series [19], 25.3 days; in series [26], 25.3 days; in series [20], 5 days. In series [27], the selectivity ratio was 24300.

The values above are taken from ChEMBL document CHEMBL4011644, “3-Hydroxy-N'-arylidenepropanehydrazonamides with Halo-Substituted Phenanthrene Scaffolds Cure P. berghei Infected Mice When Administered Perorally” (J Med Chem, 2017).
